Assay [1] deals with A2780/Taxol. The assay is described as follows: Cytotoxicity against human A2780/Taxol cells assessed survival rate at 10 uM incubated for 48 hrs by MTT assay. In kind it is functional.
Assay [2] deals with A2780/Taxol. The assay is described as follows: Reversal of multi-drug resistance in human A2780/Taxol cells incubated for 48 hrs by MTT assay. In kind it is functional, cell-based.
For assay [3], the system named is A2780/Taxol. In words: Reversal of multidrug resistance in human A2780/Taxol Cells assessed as reversal fold of paclitaxel IC50 at 10 uM incubated for 48 hrs by MTT assay. In kind it is functional.

In the assay with A2780/Taxol [1], `COc1cc(CC(=O)OCc2c(OC(C)C)ccc3c(C)c(CCc4ccccc4)c(=O)oc23)cc(OC)c1OC` registered a Cell survival rate of 93%. Moreover, the IC50 in the assay on A2780/Taxol [2] was determined as 0.088 µM. In the assay on A2780/Taxol [3], the “fold change (FC)” value is on record as 50.

`COc1cc(CC(=O)OCc2c(OC(C)C)ccc3c(C)c(C(C)C)c(=O)oc23)cc(OC)c1OC` gave a Cell survival rate in the assay with A2780/Taxol [1] of 98%. For the same compound, the IC50 in the assay on A2780/Taxol [2] was 0.036 µM. The “fold change (FC)” value in the assay with A2780/Taxol [3] worked out at 122.

As to `COc1cccc(Cc2c(C)c3ccc(OC(C)C)c(COC(=O)Cc4cc(OC)c(OC)c(OC)c4)c3oc2=O)c1`, the Cell survival rate in the assay on A2780/Taxol [1] came out at 93%. The IC50 in the assay with A2780/Taxol [2] came to 0.073 µM. Also, the “fold change (FC)” value with A2780/Taxol [3] worked out at 60.

As for `COc1ccc(/C=C/C(=O)OCc2c(OC(C)C)ccc3c(C)c(Cc4ccc(F)cc4)c(=O)oc23)cc1`, the Cell survival rate with A2780/Taxol [1] is 89%. Further, in the assay on A2780/Taxol [2], the half-maximal inhibitory concentration (IC50) was 0.491 µM. The “fold change (FC)” value in the assay with A2780/Taxol [3] stood at 9.

`COc1cc(CC(=O)OCc2c(OC(C)C)ccc3c(C)c(Cc4ccccc4F)c(=O)oc23)cc(OC)c1OC` yielded a Cell survival rate in the assay with A2780/Taxol [1] of 98%. Besides, the IC50 in the assay with A2780/Taxol [2] was found to be 0.073 µM. Moreover, in the assay on A2780/Taxol [3], the “fold change (FC)” value turned out to be 60.

In the assay with A2780/Taxol [1], `Cc1c(Cc2ccc(C#N)cc2)c(=O)oc2c(COC(=O)/C=C/c3ccccc3)c(OC(C)C)ccc12` came in with a Cell survival rate of 91%. Also, the IC50 in the assay on A2780/Taxol [2] amounted to 0.21 µM. In addition, the “fold change (FC)” value with A2780/Taxol [3] was determined as 21.

With `Cc1c(Cc2ccc(F)cc2)c(=O)oc2c(COC(=O)/C=C/c3ccccc3)c(OC(C)C)ccc12`, in the assay on A2780/Taxol [1], the Cell survival rate is given as 90%. For the same compound, the 50% inhibitory concentration (IC50) in the assay on A2780/Taxol [2] is 0.294 µM. Moreover, the “fold change (FC)” value with A2780/Taxol [3] was found to be 15.

Turning to `COc1cc(CC(=O)NCc2c(OC(C)C)ccc3c(C)cc(=O)oc23)cc(OC)c1OC`, in the assay with A2780/Taxol [1], the Cell survival rate was determined as 90%. Moreover, the IC50 in the assay with A2780/Taxol [2] was determined as 1.58 µM. For the same compound, the “fold change (FC)” value with A2780/Taxol [3] is on record as 2.8.

`COc1cc(NC(=O)c2c(OC(C)C)ccc3c(C)cc(=O)oc23)cc(OC)c1OC`: in the assay with A2780/Taxol [1], the Cell survival rate came out at 88%. For the same compound, in the assay with A2780/Taxol [2], the IC50 was 1.59 µM. For the same compound, the “fold change (FC)” value with A2780/Taxol [3] was found to be 2.8.

In the assay on A2780/Taxol [1], `COc1ccc(/C=C/C(=O)OCc2c(OC(C)C)ccc3c(C)c(Cc4ccc(OC)cc4)c(=O)oc23)cc1` had a Cell survival rate of 83%. Moreover, in the assay with A2780/Taxol [2], the IC50 stood at 0.491 µM. Besides, the “fold change (FC)” value in the assay on A2780/Taxol [3] came to 9.

In the assay with A2780/Taxol [1], `Cc1cc(=O)oc2c(CNC(=O)/C=C/c3ccccc3)c(OC(C)C)ccc12` showed a Cell survival rate of 87%. Further, in the assay with A2780/Taxol [2], the IC50 came out at 0.294 µM. Also, the “fold change (FC)” value with A2780/Taxol [3] was determined as 15.

`CCc1cc(=O)c2ccc(OC(C)C)c(CNC(=O)Cc3cc(OC)c(OC)c(OC)c3)c2o1`: the Cell survival rate with A2780/Taxol [1] came out at 97%. The 50% inhibitory concentration (IC50) with A2780/Taxol [2] was 0.02 µM. In addition, the “fold change (FC)” value in the assay with A2780/Taxol [3] is listed as 224.

`Cc1cc(=O)oc2c(C(=O)Nc3ccccc3)c(OC(C)C)ccc12` gave a Cell survival rate in the assay with A2780/Taxol [1] of 92%. In addition, the half-maximal inhibitory concentration (IC50) in the assay with A2780/Taxol [2] was 2.76 µM. In addition, in the assay with A2780/Taxol [3], the “fold change (FC)” value is recorded as 1.6.

Consider `COc1cc(CC(=O)OCc2c(OC(C)C)ccc3c(C)cc(=O)oc23)cc(OC)c1OC`, for which, in the assay with A2780/Taxol [1], the Cell survival rate is listed as 94%. For the same compound, in the assay on A2780/Taxol [2], the IC50 turned out to be 0.107 µM. For the same compound, in the assay on A2780/Taxol [3], the “fold change (FC)” value worked out at 41.

As for `CC(=O)O[C@H]1C(=O)[C@@]2(C)[C@H]([C@H](OC(=O)c3ccccc3)[C@]3(O)C[C@H](OC(=O)[C@H](O)[C@@H](NC(=O)c4ccccc4)c4ccccc4)C(C)=C1C3(C)C)[C@]1(OC(C)=O)CO[C@@H]1C[C@@H]2O` [PACLITAXEL], the IC50 with A2780/Taxol [2] came to 4.42 µM. Moreover, in the assay with A2780/Taxol [3], the “fold change (FC)” value worked out at 1.

As for `COc1cc(CC(=O)OCc2c(OC(C)C)ccc3c(C)c(Cc4ccc(F)cc4)c(=O)oc23)cc(OC)c1OC`, the Cell survival rate in the assay on A2780/Taxol [1] is 92%. Further, in the assay with A2780/Taxol [2], the half-inhibitory concentration (IC50) was 0.021 µM. Besides, in the assay with A2780/Taxol [3], the “fold change (FC)” value is recorded as 206.

In the case of `COc1ccc(/C=C/C(=O)OCc2c(OC(C)C)ccc3c(C)c(Cc4ccc(C(F)(F)F)cc4)c(=O)oc23)cc1`, the Cell survival rate with A2780/Taxol [1] is on record as 94%. Moreover, the IC50 with A2780/Taxol [2] came to 0.631 µM. In the assay with A2780/Taxol [3], the “fold change (FC)” value came to 7.

`COc1ccccc1Cc1c(C)c2ccc(OC(C)C)c(COC(=O)Cc3cc(OC)c(OC)c(OC)c3)c2oc1=O` registered a Cell survival rate with A2780/Taxol [1] of 92%. Further, the IC50 in the assay on A2780/Taxol [2] turned out to be 0.069 µM. For the same compound, the “fold change (FC)” value in the assay with A2780/Taxol [3] was 64.

In the case of `CCc1cc(=O)c2ccc(OC(C)C)c(CNc3cc(OC)c(OC)c(OC)c3)c2o1`, in the assay with A2780/Taxol [1], the Cell survival rate stood at 86%. For the same compound, the half-inhibitory concentration (IC50) with A2780/Taxol [2] was 0.143 µM. In the assay on A2780/Taxol [3], the “fold change (FC)” value was 31.

Compound `COc1cc(CC(=O)OCc2c(OC(C)C)ccc3c(C)c(Cc4ccc(C(F)(F)F)cc4)c(=O)oc23)cc(OC)c1OC` had a Cell survival rate in the assay on A2780/Taxol [1] of 81%. In addition, in the assay with A2780/Taxol [2], the half-maximal inhibitory concentration (IC50) was determined as 0.094 µM. Further, the “fold change (FC)” value with A2780/Taxol [3] came out at 47.

Compound `COc1ccc(Cc2c(C)c3ccc(OC(C)C)c(COC(=O)/C=C/c4ccccc4)c3oc2=O)cc1` gave a Cell survival rate in the assay on A2780/Taxol [1] of 94%. Moreover, the IC50 in the assay on A2780/Taxol [2] was 3.4 µM. The “fold change (FC)” value with A2780/Taxol [3] was 1.3.

For the compound `COc1cc(CC(=O)OCc2c(OC(C)C)ccc3c(C)c(Cc4cccc(F)c4)c(=O)oc23)cc(OC)c1OC`, the Cell survival rate in the assay on A2780/Taxol [1] is recorded as 94%. Further, the concentration for half-maximal inhibition (IC50) in the assay on A2780/Taxol [2] came to 0.086 µM. The “fold change (FC)” value in the assay on A2780/Taxol [3] was 51.

As for `CCOc1ccc2c(C)c(Cc3ccc(OC)cc3)c(=O)oc2c1COC(=O)/C=C/c1ccc(OC)cc1`, the Cell survival rate with A2780/Taxol [1] is reported as 90%. For the same compound, in the assay on A2780/Taxol [2], the half-inhibitory concentration (IC50) came to 0.491 µM. The “fold change (FC)” value in the assay on A2780/Taxol [3] was 9.

The compound `COc1ccc(/C=C/C(=O)OCc2c(OC(C)C)ccc3c(C)c(Cc4ccccc4)c(=O)oc23)cc1` yielded a Cell survival rate with A2780/Taxol [1] of 86%. In addition, the concentration for half-maximal inhibition (IC50) with A2780/Taxol [2] turned out to be 0.233 µM. Also, the “fold change (FC)” value in the assay with A2780/Taxol [3] is 19.

In the assay with A2780/Taxol [1], `Cc1c(Cc2ccc(C(F)(F)F)cc2)c(=O)oc2c(COC(=O)/C=C/c3ccccc3)c(OC(C)C)ccc12` displayed a Cell survival rate of 99%. Also, the IC50 in the assay on A2780/Taxol [2] stood at 0.401 µM. In addition, in the assay on A2780/Taxol [3], the “fold change (FC)” value amounted to 11.

As to `COc1cc(C(=O)OCc2c(OC(C)C)ccc3c(C)c(Cc4ccccc4)c(=O)oc23)cc(OC)c1OC`, the Cell survival rate with A2780/Taxol [1] came out at 91%. In addition, the IC50 with A2780/Taxol [2] was 0.085 µM. Besides, the “fold change (FC)” value in the assay on A2780/Taxol [3] came to 52.

Compound `CCOc1ccc2c(=O)cc(CC)oc2c1COC(=O)/C=C/c1ccc(OC)cc1` displayed a Cell survival rate in the assay on A2780/Taxol [1] of 52%.

Regarding `COc1cc(CC(=O)OCc2c(OC(C)C)ccc3c(C)c(C)c(=O)oc23)cc(OC)c1OC`, in the assay on A2780/Taxol [1], the Cell survival rate was 94%. In addition, the concentration for half-maximal inhibition (IC50) with A2780/Taxol [2] was 0.055 µM. Moreover, the “fold change (FC)” value in the assay on A2780/Taxol [3] is reported as 80.

The compound `CCc1cc(=O)c2ccc(OC(C)C)c(CNC(=O)/C=C/c3ccccc3)c2o1` returned a Cell survival rate in the assay with A2780/Taxol [1] of 74%. In addition, in the assay on A2780/Taxol [2], the concentration for half-maximal inhibition (IC50) came out at 0.192 µM. For the same compound, the “fold change (FC)” value in the assay with A2780/Taxol [3] turned out to be 23.

For the compound `CCOc1ccc2c(C)c(Cc3ccccc3)c(=O)oc2c1COC(=O)/C=C/c1ccc(OC)cc1`, the Cell survival rate in the assay on A2780/Taxol [1] was 74%. Besides, the 50% inhibitory concentration (IC50) in the assay on A2780/Taxol [2] was determined as 0.276 µM. In addition, the “fold change (FC)” value with A2780/Taxol [3] was 16.

In the assay on A2780/Taxol [1], `CCc1c(C)c2ccc(OC(C)C)c(COC(=O)Cc3cc(OC)c(OC)c(OC)c3)c2oc1=O` displayed a Cell survival rate of 93%. In the assay on A2780/Taxol [2], the half-inhibitory concentration (IC50) is 0.069 µM. The “fold change (FC)” value in the assay on A2780/Taxol [3] is 64.

In turn, `Cc1c(Cc2ccccc2)c(=O)oc2c(COC(=O)Cc3ccc(F)cc3)c(OC(C)C)ccc12` yielded a Cell survival rate in the assay with A2780/Taxol [1] of 95%. Moreover, in the assay on A2780/Taxol [2], the half-inhibitory concentration (IC50) was found to be 0.067 µM. Besides, in the assay with A2780/Taxol [3], the “fold change (FC)” value is reported as 66.

For `COc1ccc(Cc2c(C)c3ccc(OC(C)C)c(COC(=O)Cc4cc(OC)c(OC)c(OC)c4)c3oc2=O)cc1`, the Cell survival rate in the assay on A2780/Taxol [1] came to 94%. The IC50 in the assay on A2780/Taxol [2] was determined as 0.094 µM. Moreover, in the assay with A2780/Taxol [3], the “fold change (FC)” value is 47.

The record behind these values is ChEMBL document CHEMBL5385904, “Design, synthesis and biological evaluation of seco-DSP/DCK derivatives reversing P-glycoprotein-mediated paclitaxel resistance in A2780/T cells” (Eur J Med Chem, 2023).
